In the supplement of paper PMC10307832 one finds relative viability data, which are given here for 1 cell line.

Common to all, as to assay: relative viability (nuclei count vs DMSO), 5 days (fraction); higher = more cells survive
Compound in assay [1]: COc1cccc2c1C(=O)c1c(O)c3c(c(O)c1C2=O)C[C@@](O)(C(=O)CO)C[C@@H]3O[C@H]1C[C@H](N)[C@H](O)[C@H](C)O1 [Doxorubicin] + O=C(c1cc(Cc2n[nH]c(=O)c3ccccc23)ccc1F)N1CCN(C(=O)C2CC2)CC1 [Olaparib] (partner 8 µM)
The procedure, abridged: (§1)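 Lung cancer cell lines were seeded in 1536-well plates and dosed by pin tool the next day, with either a single drug or a fixed anchor-drug dose combined with five library-drug doses (not always all listed) spaced in √10 steps. Five days later, one step fixed the cells and stained their nuclei (final 0.05% Triton X-100, 1% formaldehyde, 1 ug/ml Hoechst), and nuclei were counted on 4× images. Relative viability is the nuclei count in treated wells divided by the count in vehicle wells, and each value is the median of duplicate plates.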

Compound in assay [2]: COc1cccc2c1C(=O)c1c(O)c3c(c(O)c1C2=O)C[C@@](O)(C(=O)CO)C[C@@H]3O[C@H]1C[C@H](N)[C@H](O)[C@H](C)O1 [Doxorubicin] + C[C@@H](Oc1cc(-c2cnn(C3CCNCC3)c2)cnc1N)c1c(Cl)ccc(F)c1Cl [Crizotinib] (partner 1 µM)
In outline:
as §1

Compound in assay [3]: COC1=C(C=C(C=C1)C2=CC3=NC=CN3C(=N2)NC4=C(C=CC=N4)C(=O)N)OC [BAY61-3606] + O=C(c1cc(Cc2n[nH]c(=O)c3ccccc23)ccc1F)N1CCN(C(=O)C2CC2)CC1 [Olaparib] (partner 8 µM)
In outline: as §1

Compound in assay [4]: COC1=C(C=C(C=C1)C2=CC3=NC=CN3C(=N2)NC4=C(C=CC=N4)C(=O)N)OC [BAY61-3606] + CC1(C)CCC(c2ccc(Cl)cc2)=C(CN2CCN(c3ccc(C(=O)NS(=O)(=O)c4ccc(N[C@H](CCN5CCOCC5)CSc5ccccc5)c(S(=O)(=O)C(F)(F)F)c4)cc3)CC2)C1 [Navitoclax] (partner 0.5 µM)
The procedure, abridged:
as §1

For the cell line UMC-11, the relative viability worked out at 0.38 in assay [1] (first compound 0.001 µM); 0.401 in assay [1] (first compound 0.003162 µM); 0.322 in assay [1] (first compound 0.01 µM); 0.302 in assay [1] (first compound 0.03162 µM); 0.275 in assay [1] (first compound 0.1 µM); 0.539 in assay [2] (first compound 0.001 µM). Besides, the relative viability amounted to 0.66 in assay [2] (first compound 0.003162 µM); 0.648 in assay [2] (first compound 0.01 µM); 0.309 in assay [2] (first compound 0.03162 µM); 0.386 in assay [2] (first compound 0.1 µM); 0.351 in assay [3] (first compound 0.02 µM); 0.385 in assay [3] (first compound 0.06325 µM). The relative viability in assay [3] (first compound 0.2 µM) worked out at 0.268; in assay [3] (first compound 0.6325 µM), 0.643; in assay [3] (first compound 2 µM) it was 0.266; in assay [4] (first compound 0.02 µM), 0.339; in assay [4] (first compound 0.06325 µM), 0.324; in assay [4] (first compound 0.2 µM), 0.309. Besides, the figures for the relative viability in assay [4] (first compound 0.6325 µM) and in assay [4] (first compound 2 µM) were 0.344 and 0.164, respectively.
